Source: PubChem BioAssay (NCI)
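The compound was tested at five concentrations on cells cultured in 96-well plates, with a 48-hour exposure period. The concentration for 50% growth inhibition is given as GI50. At the TGI there is no net growth.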

Key:
Test in all cases: NCI-60 cell line screen, 48 h; in the data active = GI50 below about 0.43 µM; inactive = the rest
[1] = tested on: SR leukemia
[2] = tested on: HOP-62 NSCLC
[3] = tested on: NCI-H226 lung
[4] = tested on: SK-MEL-28 melanoma
[5] = tested on: SF-268 CNS
[6] = tested on: KM12 colon
[7] = tested on: OVCAR-5 ovarian
[8] = tested on: UACC-62 melanoma
[9] = tested on: SK-MEL-5 melanoma
[10] = tested on: RPMI-8226 leukemia

COc1ccc(/C=N/N=C(\N)NO)cc1OC
73.6 µM: TGI [5]
72.1 µM: TGI [8]
> 100 µM: TGI [1] | TGI [2] | TGI [3] | TGI [4] | TGI [6] | TGI [7] | TGI [10]
58.3 µM: TGI [9]

N#CC(NNC(=O)c1ccccc1O)c1ccc(O)cc1 (centres undefined)
> 100 µM: TGI [1] | TGI [2] | TGI [4] | TGI [5] | TGI [6] | TGI [7] | TGI [9] | TGI [10]
5.97 µM: TGI [8]
55.1 µM: TGI [3]

Nc1ccc2c(SCCSc3c4ccccc4nc4cc(N)ccc34)c3ccccc3nc2c1
> 100 µM: TGI [1] | TGI [2] | TGI [3] | TGI [4] | TGI [5] | TGI [6] | TGI [7] | TGI [8] | TGI [9] | TGI [10]

CCCCCCCCCC(=O)CC(=O)c1ccc(O)cc1O
> 100 µM: TGI [4] | TGI [5]
46.5 µM: TGI [2]
61 µM: TGI [6]
43 µM: TGI [8]
84.9 µM: TGI [3]
94 µM: TGI [7]
44.9 µM: TGI [1]
59.6 µM: TGI [10]
31.5 µM: TGI [9]

Cc1cccc(C(C)(C)C)c1NC(=O)C(=O)C(C(=O)/C=C\c1ccccc1)C1OC(=O)c2ccccc21 (centres undefined)
> 100 µM: TGI [1] | TGI [2] | TGI [3] | TGI [4] | TGI [5] | TGI [6] | TGI [7] | TGI [8] | TGI [9] | TGI [10]

[N-]=[N+]=NC(c1cn(C2CC(O)C(CO)O2)c(=O)[nH]c1=O)C(Br)I (centres undefined)
> 100 µM: TGI [1] | TGI [2] | TGI [3] | TGI [4] | TGI [6] | TGI [7] | TGI [8] | TGI [9] | TGI [10]

Clc1ccc(-n2nnc(C3=NCCN3)c2-c2ccccc2)cc1
> 100 µM: TGI [1] | TGI [2] | TGI [3] | TGI [4] | TGI [5] | TGI [6] | TGI [7] | TGI [8] | TGI [9] | TGI [10]

CC(=O)CCCCCCCCCCCC[C@@H]1CC[C@H](C)[C@H](O)N1
> 100 µM: TGI [1] | TGI [2] | TGI [3] | TGI [4] | TGI [5] | TGI [6] | TGI [7] | TGI [8] | TGI [9] | TGI [10]

COP(=O)(OC)C(NC(c1ccccc1)c1ccccc1)c1ccc2c(c1)OCO2 (centres undefined)
81.3 µM: TGI [6]
52.2 µM: TGI [2]
30.5 µM: TGI [9]
48.9 µM: TGI [1]
32.3 µM: TGI [10]
44.8 µM: TGI [4]
32.2 µM: TGI [8]
inactive: GI50 [1] 24.4 µM | GI50 [2] 21.5 µM | GI50 [3] 30.7 µM | GI50 [4] 21.5 µM | GI50 [5] 29.2 µM | GI50 [6] 30 µM | GI50 [7] 54.6 µM | GI50 [8] 16 µM | GI50 [9] 16.9 µM | GI50 [10] 14.1 µM
91.8 µM: TGI [5]
> 100 µM: TGI [7]
66.6 µM: TGI [3]

COC(=O)C(CCS(=O)(=O)CC(=O)C(=O)Nc1cccc(C(C)=O)c1)C(=O)OC
> 69.4 µM: TGI [10]
50 µM: TGI [1]
> 100 µM: TGI [2] | TGI [3] | TGI [4] | TGI [5] | TGI [6] | TGI [7] | TGI [8] | TGI [9]
